From patent publication US7888329B2, “Substituted aryl piperidinylalkynyladenosines as A2AR agonists” (PGxHealth, LLC, priority 2006, dated 2011)

Key:
[1] = target: T1, recombinant human A2A receptors (Homo sapiens, UniProt P29274); experiment: Radioligand competition binding with 125I-APE or 125I-ZM241385, Sf9 cell membranes; settings: 125I-APE or 125I-ZM241385, Sf9 membranes; class symbols
T1 construct: expressed in transfected cells; host or cells: Sf9 insect cells infected with virus; membranes
T1 sequence (P29274 whole entry): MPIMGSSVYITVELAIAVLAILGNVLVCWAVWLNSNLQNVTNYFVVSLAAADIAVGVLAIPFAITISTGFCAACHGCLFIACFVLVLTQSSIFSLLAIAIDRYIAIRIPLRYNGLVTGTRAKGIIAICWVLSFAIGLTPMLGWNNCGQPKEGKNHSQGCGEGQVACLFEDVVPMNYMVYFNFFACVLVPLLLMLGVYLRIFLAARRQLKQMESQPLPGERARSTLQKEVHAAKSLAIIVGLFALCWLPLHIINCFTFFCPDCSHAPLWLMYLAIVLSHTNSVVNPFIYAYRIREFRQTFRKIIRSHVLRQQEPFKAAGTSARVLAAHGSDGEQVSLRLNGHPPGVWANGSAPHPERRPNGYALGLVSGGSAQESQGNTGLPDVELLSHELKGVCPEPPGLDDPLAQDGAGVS
Experimental: Cell culture and membrane preparation. Sf9 cells were cultured in Grace's medium supplemented with 10% fetal bovine serum, 2.5 μg/ml amphotericin B and 50 μg/ml gentamycin in an atmosphere of 50% N2/50% O2. Viral infection was performed at a density of 2.5×10^6 cells/mL with a multiplicity of infection of two for each virus used. Infected cells were harvested 3 days post-infection and washed twice in insect PBS (PBS pH 6.3). Cells were then resuspended in lysis buffer (20 mM HEPES pH 7.5, 150 mM NaCl, 3 mM MgCl2, 1 mM α-mercaptoethanol (BME), 5 μg/mL leupeptin, 5 μg/mL pepstatin A, 1 μg/mL aprotinin, and 0.1 mM PMSF) and snap frozen for storage at −80° C. Cells were thawed on ice, brought to 30 mL total volume in lysis buffer, and burst by N2 cavitation (600 psi for 20 minutes). A low-speed centrifugation was performed to remove any unlysed cells (1000×g for 10 minutes), followed by a high-speed centrifugation (17,000×g for 30 minutes). The pellet from the final centrifugation was homogenized in buffer containing 20 mM HEPES pH 8, 1100 mM NaCl, 1% glycerol, 2 μg/mL leupeptin, 2 μg/mL pepstatin A, 2 μg/mL Aprotinin, 0.1 mM PMSF, and 10 μM GDP using a small glass homogenizer followed by passage through a 26 gauge needle. Membranes were aliquoted, snap frozen in liquid N2, and stored at −80° C.
Radioligand Binding Assays. […] Binding experiments were performed in triplicate with 5 μg (A2A) or 25 μg (A1 and A3) membrane protein in a total volume of 00.1 mL HE buffer (20 mM HEPES and 1 mM EDTA) with 1 U/mL adenosine deaminase and 5 mM MgCl2 with or without 50 μM GTPγS. Membranes were incubated with radioligands at room temperature for three hours (for agonists) or two hours (for antagonists) in Millipore Multiscreen® 96-well GF/C filter plates and assays were terminated by rapid filtration on a cell harvester (Brandel, Gaithersburg, Md.) followed by 4×150 μl washes over 30 seconds with ice cold 10 mM Tris-HCl, pH 7.4, 10 mM MgCl2. Nonspecific binding was measured in the presence of 50 μM NECA.

human A3 AR = target: T2, human A3 AR (Homo sapiens, UniProt P0DMS8); experiment: Radioligand competition binding with 125I-ABA, membranes of HEK 293 cells stably expressing the receptor; settings: Ki derived from IC50, class symbols
T2 construct: expressed in transfected cells; membranes
T2 sequence (P0DMS8 1-318): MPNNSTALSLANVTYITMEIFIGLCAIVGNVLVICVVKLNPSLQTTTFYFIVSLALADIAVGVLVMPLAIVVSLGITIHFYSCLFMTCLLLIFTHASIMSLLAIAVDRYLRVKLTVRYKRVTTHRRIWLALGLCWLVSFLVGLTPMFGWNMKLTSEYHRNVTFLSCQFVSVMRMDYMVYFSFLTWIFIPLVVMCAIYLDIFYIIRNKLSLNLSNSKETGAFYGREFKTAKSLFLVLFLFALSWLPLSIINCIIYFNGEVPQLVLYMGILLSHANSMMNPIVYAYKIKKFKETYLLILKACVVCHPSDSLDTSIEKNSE
Experimental: Cell culture and membrane preparation. Sf9 cells were cultured in Grace's medium supplemented with 10% fetal bovine serum, 2.5 μg/ml amphotericin B and 50 μg/ml gentamycin in an atmosphere of 50% N2/50% O2. Viral infection was performed at a density of 2.5×10^6 cells/mL with a multiplicity of infection of two for each virus used. Infected cells were harvested 3 days post-infection and washed twice in insect PBS (PBS pH 6.3). Cells were then resuspended in lysis buffer (20 mM HEPES pH 7.5, 150 mM NaCl, 3 mM MgCl2, 1 mM α-mercaptoethanol (BME), 5 μg/mL leupeptin, 5 μg/mL pepstatin A, 1 μg/mL aprotinin, and 0.1 mM PMSF) and snap frozen for storage at −80° C. Cells were thawed on ice, brought to 30 mL total volume in lysis buffer, and burst by N2 cavitation (600 psi for 20 minutes). A low-speed centrifugation was performed to remove any unlysed cells (1000×g for 10 minutes), followed by a high-speed centrifugation (17,000×g for 30 minutes). The pellet from the final centrifugation was homogenized in buffer containing 20 mM HEPES pH 8, 1100 mM NaCl, 1% glycerol, 2 μg/mL leupeptin, 2 μg/mL pepstatin A, 2 μg/mL Aprotinin, 0.1 mM PMSF, and 10 μM GDP using a small glass homogenizer followed by passage through a 26 gauge needle. Membranes were aliquoted, snap frozen in liquid N2, and stored at −80° C. Membranes from cells stably expressing the human A1 AR (CHO K1 cells) or A3 AR (HEK 293 cells) were prepared as described (Robeva et al., 1996).
Radioligand Binding Assays. Radioligand binding to recombinant human A2A receptors in Sf9 cell membranes was performed using either the radiolabeled agonist, ^125I-APE (Luthin et al., 1995) or the radiolabeled antagonist, ^125I-ZM241385 (^125I-ZM). To detect the high affinity, GTPγS-sensitive state of A1 and A3 AR, we used the agonist, ^125I-ABA (Linden et al., 1985; Linden et al., 1993). Binding experiments were performed in triplicate with 5 μg (A2A) or 25 μg (A1 and A3) membrane protein in a total volume of 00.1 mL HE buffer (20 mM HEPES and 1 mM EDTA) with 1 U/mL adenosine deaminase and 5 mM MgCl2 with or without 50 μM GTPγS. Membranes were incubated with radioligands at room temperature for three hours (for agonists) or two hours (for antagonists) in Millipore Multiscreen® 96-well GF/C filter plates and assays were terminated by rapid filtration on a cell harvester (Brandel, Gaithersburg, Md.) followed by 4×150 μl washes over 30 seconds with ice cold 10 mM Tris-HCl, pH 7.4, 10 mM MgCl2. Nonspecific binding was measured in the presence of 50 μM NECA. Competition binding assays were performed as described (Robeva et al., 1996) using 0.5-1 nM ^125I-APE, ^125I-ZM241385, or ^125I-ABA. […] The Ki values for competing compound binding to a single site were derived from IC50 values with correction for radioligand and competing compound depletion as described previously (Linden, 1982).

human A1 AR = target: T3, human A1 AR (Homo sapiens, UniProt P30542); experiment: Radioligand competition binding with 125I-ABA, membranes of CHO K1 cells stably expressing the receptor; settings: Ki derived from IC50, class symbols
T3 construct: expressed in transfected cells; membranes
T3 sequence (P30542 1-326): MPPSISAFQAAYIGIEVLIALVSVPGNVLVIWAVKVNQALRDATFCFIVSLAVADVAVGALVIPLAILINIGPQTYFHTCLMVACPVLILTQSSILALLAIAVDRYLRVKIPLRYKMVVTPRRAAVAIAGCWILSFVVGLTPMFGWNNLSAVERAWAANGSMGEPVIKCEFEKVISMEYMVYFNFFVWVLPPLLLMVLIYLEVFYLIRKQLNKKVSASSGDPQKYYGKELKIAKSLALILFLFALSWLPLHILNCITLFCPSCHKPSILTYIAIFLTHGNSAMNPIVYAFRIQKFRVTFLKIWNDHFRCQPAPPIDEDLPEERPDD

[2] = system: Purified human neutrophils; experiment: Luminol enhanced chemiluminescence (neutrophil oxidative activity), fMLP stimulated; format: cell-based; settings: Homo sapiens, Neutrophil; read-out: Functional
Text: Chemiluminescence Methods: Luminol enhanced chemiluminescence, a measure of neutrophil oxidative activity, is dependent upon both superoxide production and mobilization of the granule enzyme myeloperoxidase. The light is emitted from unstable high-energy oxygen species such as hypochlorous acid and singlet oxygen generated by activated neutrophils.
Purified human neutrophils (2×10^6/ml) suspended in Hanks balanced salt solution containing 0.1% human serum albumin (HA), adenosine deaminase (1 U/mL) and rolipram (100 nM) were incubated (37 C) in a water bath for 15 min with or without rhTNF (10 U/ml). Following incubation 100 µL aliquots of the PMN were transferred to wells (White walled clear bottom 96 well tissue culture plates Costar #3670; 2 wells/condition) containing […] and luminol (final concentration 100M) with or without adenosine agonist (final agonist concentrations 0.01-1000 nM). The plate was incubated 5 min (37 C) and then fMLP (50 l in HA; final concentration […]) was added to all wells.
Peak chemiluminescence was determined with a Victor 1420 Multilabel Counter in the chemiluminescence mode using the Wallac Workstation software. Data are presented as peak chemiluminescence as percent of activity in the absence of an adenosine agonist. The EC50 was determined using PRISM software. All compounds were tested with PMNs from three separate donors.

Row | Compound | Ki [1] [nM] | Ki (human A3 AR) [nM] | Ki (human A1 AR) [nM] | EC50 [2] [nM]
1 | COc1ccccc1OC(=O)N1CCC(CC#Cc2nc(N)c3ncn([C@@H]4O[C@H](C(=O)NC5CC5)C(O)[C@@H]4O)c3n2)CC1 (some centres unmarked) [Compound 21, N-Cyclopropyl 2-{3-[1-(2-methoxyphenyloxycarbonyl)-4-piperidinyl]-1-propyn-1-yl}adenosine-5′-uronamide] | < 1 | < 100 | < 100 | < 10
2 | Nc1nc(C#CCC2CCN(C(=O)Oc3ccccc3Cl)CC2)nc2c1ncn2[C@@H]1O[C@H](C(=O)NC2CC2)C(O)[C@@H]1O (some centres unmarked) [Compound 22, N-Cyclopropyl 2-{3-[1-(2-chlorophenyloxycarbonyl)-4-piperidinyl]-1-propyn-1-yl}adenosine-5′-uronamide] | < 1 | > 100 | < 100 | < 10
3 | COc1ccc(OC(=O)N2CCC(CC#Cc3nc(N)c4ncn([C@@H]5O[C@H](C(=O)NC6CC6)C(O)[C@@H]5O)c4n3)CC2)cc1 (some centres unmarked) [Compound 23] | < 1 | < 100 | < 100 | < 1
4 | CCNC(=O)[C@H]1O[C@@H](n2cnc3c(N)nc(C#CCC4CCN(C(=O)Oc5ccc(F)cc5)CC4)nc32)[C@@H](O)C1O (some centres unmarked) [Compound 24, N-Ethyl 2-{3-[1-(4-fluorophenyloxycarbonyl)-4-piperidinyl]-1-propyn-1-yl}adenosine-5′-uronamide] | < 1 | < 10 | < 100 | < 1
5 | CCNC(=O)[C@H]1O[C@@H](n2cnc3c(N)nc(C#CCC4CCN(C(=O)Oc5ccc(C(=O)OC)cc5)CC4)nc32)[C@@H](O)C1O (some centres unmarked) [Compound 25, N-Ethyl 2-{3-[1-(4-methoxycarboxyphenyloxycarbonyl)-4-piperidinyl]-1-propyn-1-yl}adenosine-5′-uronamide] | < 10 | < 100 | > 100 | < 10
6 | CCNC(=O)[C@H]1O[C@@H](n2cnc3c(N)nc(C#CCC4CCN(C(=O)Oc5ccc(Cl)cc5)CC4)nc32)[C@@H](O)C1O (some centres unmarked) [Compound 26, N-Ethyl 2-{3-[1-(4-chlorophenyloxycarbonyl)-4-piperidinyl]-1-propyn-1-yl}adenosine-5′-uronamide] | < 1 | < 10 | < 100 | < 1
7 | Nc1nc(C#CCC2CCN(C(=O)Oc3ccc(Cl)cc3)CC2)nc2c1ncn2[C@@H]1O[C@H](CO)[C@@H](O)[C@H]1O [Compound 27, 2-{3-[1-((4-Chloro)phenoxycarbanoyl)piperidin-4-yl]propyn-1-yl}adenosine] | < 1 | < 100 | < 100 | < 10
8 | COc1ccc(OC(=O)N2CCC(CC#Cc3nc(N)c4ncn([C@@H]5O[C@H](CO)[C@@H](O)[C@H]5O)c4n3)CC2)cc1 [Compound 28, 2-{3-[1-((4-Methoxy)phenoxycarbanoyl)piperidin-4-yl]propyn-1-yl}adenosine] | < 1 | < 100 | < 100 | < 10
9 | Cc1ccc(OC(=O)N2CCC(CC#Cc3nc(N)c4ncn([C@@H]5O[C@H](CO)[C@@H](O)[C@H]5O)c4n3)CC2)cc1 [Compound 29, 2-{3-[1-((4-Methyl)phenoxycarbanoyl)piperidin-4-yl]propyn-1-yl}adenosine] | < 1 | < 100 | < 100 | < 10
10 | Nc1nc(C#CCC2CCN(C(=O)OCc3ccc([N+](=O)[O-])cc3)CC2)nc2c1ncn2[C@@H]1O[C@H](CO)[C@@H](O)[C@H]1O [Compound 30, 2-{3-[1-((4-Nitro)benzyloxycarbanoyl)piperidin-4-yl]propyn-1-yl}adenosine] | < 10 | < 100 | < 100 | < 10
11 | CCNC(=O)[C@H]1O[C@@H](n2cnc3c(N)nc(C#CCC4CCN(C(=O)Oc5ccccc5Cl)CC4)nc32)[C@@H](O)C1O (some centres unmarked) [Compound 31, N-Ethyl 2-{3-[1-(2-chlorophenyloxycarbonyl)-4-piperidinyl]-1-propyn-1-yl}adenosine-5′-uronamide] | < 1 | < 10 | < 100 | < 10
